The term ED50 denotes the midpoint of the dose-response relation. A higher ED50 goes with a need for a large dose.

This test deals with Dopamine receptor (Rattus norvegicus) (UniProt P25115+P19020+P30729+P18901+P61169). As to the kind of experiment: ED50 for induction of contralateral turning behavior in 6-hydroxydopamine (6-OHDA) lesioned rats by ip administration. Type of test: functional, organism-based.

On to `c1ccc2c(c1)CC[C@H]1NCCOC21` (some centres not stated), for which the ED50 is 30 mg/kg.
`CCN1CCOC2c3ccccc3CC[C@H]21` (some centres not stated) returned an ED50 of 1.7 mg/kg. Compared with the last compound, the ED50 is about 18-fold lower.

These data come from ChEMBL document CHEMBL1122534, “Synthesis of 4-substituted 2H-naphth[1,2-b]-1,4-oxazines, a new class of dopamine agonists” (J Med Chem, 1984).
